Where two headings read alike, the source gives them in different places.
What was measured:
[1] = SAD study NP10679-101, plasma pharmacokinetics; type: in vivo, human
Description: Each cohort consisted of 8 subjects.
(±10° C.) until shipment.

[2] = system: motor coordination of mice on rotarod; assay: Rotarod performance; type: in vivo, mouse; conditions: for rotarod impairment: all four trials
Description: The locomotor and rotarod studies were approved by the Georgia State University IACUC, an AAALAC accredited institution under the supervision of licensed veterinarians. Mice were group housed, provided nestlets and shelters with access to food pellets and water ad libitum under a 12-hour light/dark cycle.
For rotarod experiments, male C57BL/6 mice (>90 days old) were tested using a Rotamax 4/8 rotarod (Columbus Instruments, Columbus, Ohio). Prior to training and testing, the mice were brought to the testing room and allowed to acclimate for two hours prior to any further handling. Mice were placed on a rotating rod (5 rpm), 3.8 cm in diameter and 8 cm wide, elevated 30 cm from the floor of a chamber. After 10 sec of rotation at a fixed velocity, the rotation was slowly accelerated from 5 to 35 rpm over a 5 min period. The duration of time that the mouse could stay on the rotarod, without hanging on for a full rotation or without falling, was recorded. Mice were trained 4 times at 25 min inter-trial intervals on each day for two days. On day three, mice were randomly assigned to treatment groups and administered test drug or vehicle (via IP administration) 25 min prior to testing (4 trials with inter-trial interval of 25 min). Individuals performing the experiment were blinded to the identity of each treatment group. Results were analyzed by ANOVA and Dunnett's post hoc test to compare duration of time on the rotating rod of drug-treated groups to the vehicle controls.

[3] = human, plasma, Cohort 1, 5 mg single IV
[4] = human, plasma, Cohort 2, 15 mg single IV
[5] = human, plasma, Cohort 3, 50 mg single IV
[6] = human, plasma, Cohort 4, 100 mg single IV
[7] = human, plasma, Cohort 5, 150 mg single IV
[8] = human, plasma, Cohort 6, 200 mg single IV

AUMC(0-T) (ng*h^2/mL) ([1]; Cohort 1, 5 mg single IV): 5794 ng*h^2/mL
AUMC(0-inf) (ng*h^2/mL) ([1]; Cohort 1, 5 mg single IV): 35856 ng*h^2/mL
CL ([1]; Cohort 1, 5 mg single IV): 9.82 L/h
Cmax ([1]; Cohort 1, 5 mg single IV): 26.96 ng/mL
T1/2* ([1]; Cohort 1, 5 mg single IV, harmonic mean): 27.6 h
AUMC(0-T) (ng*h^2/mL) ([1]; Cohort 2, 15 mg single IV): 18219 ng*h^2/mL
AUMC(0-inf) (ng*h^2/mL) ([1]; Cohort 2, 15 mg single IV): 34553 ng*h^2/mL
AUMC(0-T) (ng*h^2/mL) ([1]; Cohort 3, 50 mg single IV): 61442 ng*h^2/mL
AUMC(0-inf) (ng*h^2/mL) ([1]; Cohort 3, 50 mg single IV): 114675 ng*h^2/mL
AUMC(0-T) (ng*h^2/mL) ([1]; Cohort 4, 100 mg single IV): 201642 ng*h^2/mL
AUMC(0-inf) (ng*h^2/mL) ([1]; Cohort 4, 100 mg single IV): 253651 ng*h^2/mL
AUMC(0-T) (ng*h^2/mL) ([1]; Cohort 5, 150 mg single IV): 286984 ng*h^2/mL
AUMC(0-inf) (ng*h^2/mL) ([1]; Cohort 5, 150 mg single IV): 323299 ng*h^2/mL
AUMC(0-T) (ng*h^2/mL) ([1]; Cohort 6, 200 mg single IV): 407581 ng*h^2/mL
AUMC(0-inf) (ng*h^2/mL) ([1]; Cohort 6, 200 mg single IV): 459611 ng*h^2/mL
CL ([1]; Cohort 6, 200 mg single IV): 10.39 L/h
T1/2* ([1]; Cohort 6, 200 mg single IV, harmonic mean): 17.4 h
clearance as percent of the hepatic blood flow ([1]; human hepatic blood flow 87 L/h): less than 12%
half-life ([1]; human, plasma, intravenous, SAD and MAD studies, read-out: half-life (converted)): ~1200 min
clearance ([1]; human, plasma, iv, 5 mg, Cohort 1, 5 mg single IV): 164 mL/min
Cmax ([1]; human, plasma, iv, 5 mg, Cohort 1, 5 mg single IV, read-out: Cmax): 30 ± 14.8 ng/mL
clearance ([1]; human, plasma, iv, 15 mg, Cohort 2, 15 mg single IV): 200 mL/min
Cmax ([1]; human, plasma, iv, 15 mg, Cohort 2, 15 mg single IV, read-out: Cmax): 99.2 ng/mL
clearance ([1]; human, plasma, iv, 50 mg, Cohort 3, 50 mg single IV): 183 mL/min
Cmax ([1]; human, plasma, iv, 50 mg, Cohort 3, 50 mg single IV, read-out: Cmax): 415 ng/mL
clearance ([1]; human, plasma, iv, 100 mg, Cohort 4, 100 mg single IV): 183 mL/min
Cmax ([1]; human, plasma, iv, 100 mg, Cohort 4, 100 mg single IV, read-out: Cmax): 746 ng/mL
clearance ([1]; human, plasma, iv, 150 mg, Cohort 5, 150 mg single IV): 182 mL/min
Cmax ([1]; human, plasma, iv, 150 mg, Cohort 5, 150 mg single IV, read-out: Cmax): 954 ng/mL
clearance ([1]; human, plasma, iv, 200 mg, Cohort 6, 200 mg single IV): 173 mL/min
Cmax ([1]; human, plasma, iv, 200 mg, Cohort 6, 200 mg single IV, read-out: Cmax): 2070 ± 798 ng/mL
AUC(0-inf) [1, 3]: 533 ng·h/mL
AUC(0-t) [1, 3]: 335 ng·h/mL
MRT [1, 3]: 52.9 h
half-life ([1]; human, plasma, Cohort 1, 5 mg single IV, harmonic mean, read-out: T1/2* (converted)): 1660 ± 720 min
Vd ([1]; human, plasma, Cohort 1, 5 mg single IV, read-out: Vss): 435 L
AUC(0-inf) [1, 4]: 1280 ng·h/mL
AUC(0-t) [1, 4]: 1140 ng·h/mL
MRT [1, 4]: 26.1 h
half-life ([1]; human, plasma, Cohort 2, 15 mg single IV, harmonic mean, read-out: T1/2* (converted)): 1220 min
Vd ([1]; human, plasma, Cohort 2, 15 mg single IV, read-out: Vss): 306 L
AUC(0-inf) [1, 5]: 4680 ng·h/mL
AUC(0-t) [1, 5]: 3980 ng·h/mL
MRT [1, 5]: 23.8 h
half-life ([1]; human, plasma, Cohort 3, 50 mg single IV, harmonic mean, read-out: T1/2* (converted)): 1070 min
Vd ([1]; human, plasma, Cohort 3, 50 mg single IV, read-out: Vss): 255 L
AUC(0-inf) [1, 6]: 9860 ng·h/mL
AUC(0-t) [1, 6]: 9370 ng·h/mL
MRT [1, 6]: 24.5 h
half-life ([1]; human, plasma, Cohort 4, 100 mg single IV, harmonic mean, read-out: T1/2* (converted)): 1190 min
Vd ([1]; human, plasma, Cohort 4, 100 mg single IV, read-out: Vss): 259 L
AUC(0-inf) [1, 7]: 13800 ng·h/mL
AUC(0-t) [1, 7]: 13600 ng·h/mL
MRT [1, 7]: 23 h
half-life ([1]; human, plasma, Cohort 5, 150 mg single IV, harmonic mean, read-out: T1/2* (converted)): 1070 min
Vd ([1]; human, plasma, Cohort 5, 150 mg single IV, read-out: Vss): 250 L
AUC(0-inf) [1, 8]: 20200 ng·h/mL
AUC(0-t) [1, 8]: 19700 ng·h/mL
MRT [1, 8]: 21.9 h
half-life ([1]; human, plasma, Cohort 6, 200 mg single IV, harmonic mean, read-out: T1/2* (converted)): 1040 ± 168 min
Vd ([1]; human, plasma, Cohort 6, 200 mg single IV, read-out: Vss): 221 L
Vd ([1]; human, plasma, single IV 5 to 200 mg, read-out: volume of distribution): > 221 L
volume of distribution as times of the total body water space ([1]; in vivo): 4.5 times
SMILES: O=C1CCc2cc(OC[C@H](O)CN3CCN(c4ccc(C(F)(F)F)cc4)CC3)ccc2N1 [NP10679]
rotarod impairment ([2]; 2 mg/kg IP): no significant impairment
rotarod impairment ([2]; 5 mg/kg IP): no significant impairment
latency to fall ([2]; 10 mg/kg IP, fourth trial): 87 ± 13 s
latency to fall, change from the vehicle control ([2]; 10 mg/kg IP, trials 1, 2, or 3): no statistically significant change
